The values below come from article PMC6151435, “Bioactivity In Vitro of Quercetin Glycoside Obtained in Beauveria bassiana Culture and Its Interaction with Liposome Membranes” (Molecules : A Journal of Synthetic Chemistry and Natural …, 2017).

The conditions of data set [1]: rat, in vivo; cited from earlier work.
Data set [2] has as its system HSA. The note with it: cited from earlier work; for binding constant to HSA: ref [59].
On the set-up of data set [3]: method as in Strugała et al. [46]. To be noted: ref Strugała et al. [46]; read-out: IC50 AAPH PC (inhibition of AAPH induced oxidation of phosphatidylcholine liposomes); cited from earlier work.
For data set [4] the following is noted: cited from earlier work.
Data set [5] in a line: Solubility in water (literature values). To be noted: from cited values. The format is physicochemical.

≈ marks a conversion by molar mass, not a printed value. Where two headings read alike, the source gives them in different places.

`O=c1c(O[C@@H]2O[C@H](CO)[C@@H](O)[C@H](O)[C@H]2O)c(-c2ccc(O)c(O)c2)oc2cc(O)cc(O)c12` [3-O-glucoside of quercetin]: the “absorption, higher compared to quercetin itself” value in data set [1] is 184%.

Consider `COc1ccc2c(c1)c(CC(=O)O)c(C)n2C(=O)c1ccc(Cl)cc1` [Indomethacin, indomethacin], for which, in data set [2], the “binding constant to HSA” value was roughly 489000 M⁻¹. Broadly, the IC50 is the concentration at which inhibition is half-maximal. Turning to `O=C1O[C@H]([C@@H](O)CO)C(O)=C1O` [L(+) ascorbic acid, L-(+)-ascorbic acid], the IC50 in data set [3] is 129 ± 12.4 µM. With `CC(=O)Oc1ccccc1C(=O)O` [aspirin], the “binding constant to HSA” value in data set [2] is reported as “approximately 1.4 × 10^4 M^−1”. As to `Cc1cnc(NC(=O)C2=C(O)c3ccccc3S(=O)(=O)N2C)s1` [meloxicam], the “association constant to HSA” value in data set [2] (order of magnitude, ref [58]) is recorded as ~10^5 M^−1. Also, in data set [2] (ref [58]), the “bound to HSA” value is listed as “more than 99%”. The term solubility denotes how much of the substance goes into solution per volume. Take `O=C1C[C@@H](c2ccc(O)cc2)Oc2cc(O)cc(O)c21` [naringenin]: the solubility in data set [4] (at 20 °C, ref [9]) is 4.38 mg/L (≈ 16.1 µM).

`C[C@@H]1O[C@@H](O[C@H]2[C@H](Oc3cc(O)c4c(c3)O[C@H](c3ccc(O)cc3)CC4=O)O[C@H](CO)[C@@H](O)[C@@H]2O)[C@H](O)[C@H](O)[C@H]1O` [naringin]: in data set [5], the “solubility, fold higher than aglycone naringenin” value is given as “more than 110 fold”. In addition, in data set [4] (ref [10]), the solubility is recorded as 500 mg/L (≈ 861 µM).
